The text below walks through data of patent US8383673B2, “Nitridoosmium(VI) complexes for treatment of cancer” (priority 2010, dated 2013).

The subject of data set [1] is HeLa cells. Briefly: MTT assay of Compound 8 with and without cisplatin. It counts as cell-based, human. As to conditions: for IC50: MTT, 3 days incubation. On the procedure:
Compound 8 was tested in the MTT assay to determine its effects with and without cisplatin (see FIG. 1). Assays of cytotoxicity were conducted in 96-well, flat-bottomed microtitre plates. The supplemented culture medium (MEM, 40 μL) with HeLa cells (1×10^5 cells per mL) was added to the wells. Compound 8 was dissolved in the culture medium with 0.5% DMSO with concentrations ranged from 5 μM to 100 μM, and aliquots (10 μL) of the solutions were subsequently added to a set of wells containing the HeLa cells. To examine the synergistic effect of cisplatin, cisplatin was dissolved in the culture medium in order to prepare solutions with concentrations of 0, 0.2, 2 and 6 μM. Aliquots of the cisplatin solutions (50 μL) were added to different sets of the wells containing compound 8 and the HeLa cells. Cells for control experiments were treated with supplemented media with 0.5% DMSO (100 μL). The microtitre plates were incubated at 37° C. in a humidified atmosphere of 5% CO2/95% air for a further 3 days. Assessment of cytotoxicity was carried out by using a modified method of the Mosmann-based 3-(4,5-dimethylthiazol-2-yl)-2,5-diphenyltetrazolium bromide (MTT) assay [T. Mosmann, J. Immunol. Methods 1983, 65, 55]. At the end of the incubation period, MTT solution (10 μL, Cell Proliferation Kit I, Roche) was added into each well and the cultures were incubated further for 4 h at 37° C. in a humidified atmosphere of 5% CO2/95% air. A solubilizing solution (100 μL) was added into wells to lyse the cells and to solubilize the formed formazan complex. The microtitre plates were maintained in a dark, humidified chamber overnight. The formation of formazan was measured by using a microtitre plate reader at 550 nm and the percentages of cell survival were determined. The cytotoxicity was evaluated based on the percentage cell survival in a dose-dependent manner relative to the control.
In general terms: Formazan colour is commonly taken as a measure of viable cells.

Data set [2] relates to human cervix epitheloid carcinoma (HeLa) cell line. Briefly: Microculture Tetrazolium Test (MTT assay), cytotoxicity in HeLa cell line. It counts as cell-based. On the procedure:
The cytotoxicity of the complexes was tested by using human cervix epitheloid carcinoma (HeLa) cell line. In this respect the following method was selected.
The antiproliferation activity of these nitridoosmium compounds was examined on human tumor cell lines in the Microculture Tetrazolium Test (MTT assay) with continuous active substance exposition (24 h for compound 1-7; 48 h for compound 8-11). In this regard, adherent monolayer cultures of HeLa cell line were used.
Culture conditions: The cells were kept in 10 cm^2 culture plates at 37° C. and moist atmosphere (5% CO2). Dulbecco's Modified Eagle's Medium (DMEM) was used as culture medium, with 1% antibiotic-antimycotic and 10% fetal bovine serum.
Test execution: Cell were harvested from culture plates by trypsinization and seeded in 100 μL aliquots in complete culture medium into 96-well microculture plates. Cell density of about 4800 cells/well was chosen in order to ensure exponential growth throughout drug exposure. Cells were allowed to settle for 24 h, followed by the addition of dilutions of the test compounds, which were dissolved in DMSO, in 100 μL/well complete culture medium (<1% DMSO) and incubation for 24 h (compound 1-7) or 48 h (compound 8-11). At the end of exposure, drug solutions were replaced by 100 μL/well DMEM medium with 10% MTT solution in phosphate-buffered saline (5 mg/ml PBS). After incubation for 1 h at 37° C., medium was removed, and the reduced formazan product formed by the metabolic activity of vital cells was dissolved in 100 μL DMSO per well. Optical densities at a wavelength of 570 nm were measured with a microplate reader. The quantity of vital cells was expressed in terms of T/C values by comparison to untreated control microcultures, and IC50 values were calculated from concentration-effect curves by logarithmic interpolation. Evaluation is based on means from at least three independent experiments, each comprising four replicates per concentration level.

Data set [3] concerns human non-small cell lung cancer cells NCI-H460. As to conditions: for tumor weight: twice a week, eight injections, end of study (30 days), Mean ± SD; for inhibition rate (%): tumor growth inhibition by tumor weight vs negative group. The protocol:
In vitro cultured human non-small cell lung cancer cells NCI-H460 (from ATCC) were inoculated in nude mice (SPF grade BALB/c-nu male nude mice were purchased from Medical Laboratory Animal Center, Guangdong Province) subcutaneously. The in vivo anti-cancer properties of Os1 (Compound 8) and Os2 (Compound 1) given by intraperitoneal injection were examined by measuring the tumor nodule size of the nude mice.
Each nude mouse was inoculated subcutaneously with 0.2 mL of 7.5×10^6 cells/mL of NCI-H460 cells suspended in culture medium.
Experimental Procedure: 16-18 g male BALB/c-nu nude mice were inoculated subcutaneously 0.2 mL of the NCI-H460 cell suspension (1.5×10^6 cells/rats). The day after inoculation (administration day 1), the nude mice were randomly divided into eight groups and were grouped as follows:
1) positive group (cyclophosphamide 30.0 mg/kg, intraperitoneal injection)
2) negative group (20% PET, intraperitoneal injection)
3) Os1 groups (three treatment groups: 10, 3, 1 mg/kg, intraperitoneal injection)
4) Os2 groups (three treatment groups: 10, 3, 1 mg/kg, intraperitoneal injection)
Mice in each group were received treatment twice a week, with a total number of eight injections. Tumor sizes were measured every 3 days. The treated mice were sacrificed at the end of the study period (30 days) with anatomical separation of tumor nodules. The tumors were weighed and photographed.
The inhibition rate of tumor growth was determined using the following formula: Tumor growth inhibition rate (%)=(1−mean tumor weight of the treatment/mean tumor weight of the negative group)×100%. Tumor volume=longest dimension (mm)×[shortest dimension of the tumor (mm)]^2/2. All measurements were expressed in Mean±SD, using SPSS 10.0 for statistical analysis.

Where two headings read alike, the source gives them in different places.

The IC50 is the midpoint of a concentration-inhibition curve. Regarding `N.N.[Cl][Pt][Cl]` [Cisplatin, cisplatin, reference compound], the IC50 in data set [1] (single agent) worked out at 7.5 µM.
`Cc1cc(C)[nH]n1.Cc1cc(C)[nH]n1.[N]#[Os]([Cl])([Cl])[Cl]` [Compound 10, trans-[Os^VI(N)(3,5-dimethylpyrazole)2Cl3]] came in with a concentration for half-maximal inhibition (IC50) in data set [2] (48 h exposure (compound 8-11)) of under 100 µM.
`Cc1ccn[nH]1.Cc1ccn[nH]1.[N]#[Os]([Cl])([Cl])[Cl]` [Compound 11, trans-[Os^VI(N)(5-methylpyrazole)2Cl3]] returned an IC50 in data set [2] (48 h exposure (compound 8-11)) of under 100 µM.
`O=P1(N(CCCl)CCCl)NCCCO1` (centres unmarked) [positive control, cyclophosphamide, reference compound]: the “Tumor volume/mm^3” value is listed as 168.16 mm^3 in data set [3] (30 mg/kg i.p., day 14); 227.03 mm^3 in data set [3] (30 mg/kg i.p., day 18); 318.64 mm^3 in data set [3] (30 mg/kg i.p., day 22); 378.31 mm^3 in data set [3] (30 mg/kg i.p., day 26); 778.84 mm^3 in data set [3] (30 mg/kg i.p., day 30). Further, the “tumor weight” value in data set [3] (30.0 mg/kg i.p.) amounted to 0.6095 ± 0.5477 g. Further, the “inhibition rate (%)” value in data set [3] (30.0 mg/kg i.p.) worked out at 74.04%.
“[Os^VI(N)(5-Brsalpa)(OH2)Cl] [Compound 3]”: the half-maximal inhibitory concentration (IC50) in data set [2] (24 h exposure (compound 1-7)) is under 25 µM.
On the same count and under the same terms, then “[Os^VI(N)(5-Clsalpa)(OH2)Cl] [Compound 2]”, with under 25 µM; and “[Os^VI(N)(5-MeOsalpa)(OH2)Cl] [Compound 5]”, with under 25 µM; and “[Os^VI(N)(5-Mesalpa)(OH2)Cl] [Compound 4]”, with under 25 µM.
“[Os^VI(N)(5-NO2salpa)(OH2)Cl] [Compound 6]” yielded an IC50 in data set [2] (24 h exposure (compound 1-7)) of under 100 µM.
[Os^VI(N)(pyrazole)2Cl3] [Compound 8]: the “Tumor volume/mm^3” value is 288.12 mm^3 in data set [3] (1 mg/kg i.p., day 14); 518.99 mm^3 in data set [3] (1 mg/kg i.p., day 18); 801.59 mm^3 in data set [3] (1 mg/kg i.p., day 22); 1319.35 mm^3 in data set [3] (1 mg/kg i.p., day 26); 1569.69 mm^3 in data set [3] (1 mg/kg i.p., day 30); 482.89 mm^3 in data set [3] (3 mg/kg i.p., day 14). In addition, the “Tumor volume/mm^3” value in data set [3] (3 mg/kg i.p., day 18) was 1043.37 mm^3; in data set [3] (3 mg/kg i.p., day 22) it was 1140.42 mm^3; in data set [3] (3 mg/kg i.p., day 26), 1537.35 mm^3; in data set [3] (3 mg/kg i.p., day 30), 2262.38 mm^3; in data set [3] (10 mg/kg i.p., day 14) it was 534.98 mm^3; in data set [3] (10 mg/kg i.p., day 18), 901.64 mm^3. Moreover, the “Tumor volume/mm^3” value came out at 1422.37 mm^3 in data set [3] (10 mg/kg i.p., day 22); 2004.80 mm^3 in data set [3] (10 mg/kg i.p., day 26); 2511.59 mm^3 in data set [3] (10 mg/kg i.p., day 30). For the same molecule, the figures for the “tumor weight” value in data set [3] (1 mg/kg i.p.), in data set [3] (3 mg/kg i.p.) and in data set [3] (10 mg/kg i.p.) were 1.7206 ± 0.4289 g, 2.0631 ± 1.1693 g and 2.7711 ± 1.0732 g, respectively. The “inhibition rate (%)” value in data set [3] (1 mg/kg i.p.) is 26.73%; in data set [3] (3 mg/kg i.p.) it was 12.14%; in data set [3] (10 mg/kg i.p.) it was −18.01%. Besides, the half-maximal inhibitory concentration (IC50) in data set [2] (48 h exposure (compound 8-11)) is under 25 µM; in data set [1] (single agent), 3.8 µM; in data set [1] (with cisplatin 0.1 μM) it was 4.19 µM; in data set [1] (with cisplatin 1.0 μM) it was 3.38 µM; in data set [1] (with cisplatin 3.0 μM), 4.7 µM. Moreover, the “effectiveness in the MTT assay compared with cisplatin” value in data set [1] was “more effective than cisplatin”. The “synergistic effect of cisplatin administered with the compound” value in data set [1] (cisplatin 0.1-3.0 μM) is listed as “does not provide any synergistic effect”.
[Os^VI(N)(salpa)(OH2)Cl] [Compound 1]: the “Tumor volume/mm^3” value in data set [3] (1 mg/kg i.p., day 14) stood at 380.21 mm^3; in data set [3] (1 mg/kg i.p., day 18), 710.06 mm^3; in data set [3] (1 mg/kg i.p., day 22), 726.71 mm^3; in data set [3] (1 mg/kg i.p., day 26), 1365.02 mm^3; in data set [3] (1 mg/kg i.p., day 30), 1110.38 mm^3; in data set [3] (3 mg/kg i.p., day 14), 420.80 mm^3. Besides, the “Tumor volume/mm^3” value in data set [3] (3 mg/kg i.p., day 18) is 500.45 mm^3; in data set [3] (3 mg/kg i.p., day 22) it was 1011.29 mm^3; in data set [3] (3 mg/kg i.p., day 26), 1032.38 mm^3; in data set [3] (3 mg/kg i.p., day 30) it was 1390.62 mm^3; in data set [3] (10 mg/kg i.p., day 14), 507.33 mm^3; in data set [3] (10 mg/kg i.p., day 18), 671.87 mm^3. Moreover, the “Tumor volume/mm^3” value stood at 1342.17 mm^3 in data set [3] (10 mg/kg i.p., day 22); 1601.47 mm^3 in data set [3] (10 mg/kg i.p., day 26); 2188.17 mm^3 in data set [3] (10 mg/kg i.p., day 30). Also, the “tumor weight” value in data set [3] (1 mg/kg i.p.) is reported as 1.2164 ± 0.6547 g; in data set [3] (3 mg/kg i.p.) it was 1.3542 ± 0.5337 g; in data set [3] (10 mg/kg i.p.), 2.1535 ± 1.4884 g. Also, the “deaths of treated mice” value in data set [3] (high-dose group (10 mg/kg i.p.)) was “one treated mouse died at day 7 and one died at day 19”; in data set [3] (middle dose group (3 mg/kg i.p.)), “one treated mouse died at day 23 and one died at day 26”. Besides, the “inhibition rate (%)” value in data set [3] (1 mg/kg i.p.) turned out to be 48.20%; in data set [3] (3 mg/kg i.p.), 42.33%; in data set [3] (10 mg/kg i.p.) it was 8.29%. Besides, the IC50 in data set [2] (24 h exposure (compound 1-7)) is under 25 µM.
For the molecule “tran-[Os^VI(N)(indazole)2Cl3] [Compound 9]”, the IC50 in data set [2] (48 h exposure (compound 8-11)) was under 25 µM.
